Consider 2 compounds from article PMC10539439 (Pharmacological Reports, 2023).

Structures are written as SMILES.

Series [1] in a line: Distribution in brain after ip administration. It counts as in vivo, rat. The following applies: for Tmax / concentration at 5 min / concentration at 15 min / concentration at 30 min / concentration at 60 min / concentration at 120 min / concentration at 240 min: male, Wistar, rat, brain; for concentration at 5 min / concentration at 15 min / concentration at 30 min / concentration at 60 min / concentration at 120 min / concentration at 240 min: intraperitoneal, mean; for concentration at 5 min: 5 min after administration; for concentration at 15 min: 15 min after administration; for concentration at 30 min: 30 min after administration; for concentration at 60 min: 60 min after administration; for concentration at 120 min: 120 min after administration; for concentration at 240 min: 240 min after administration; for Penetration into the brain: summary table. The protocol: (§1) For the pharmacokinetic study, a group of 56 adult male rats (Wistar, 220–250 g, […]) were used in the experiment. Animals were purchased from the Animal House of the Faculty of Pharmacy of Jagiellonian University Medical College, Krakow, Poland. […] These were then given through an intraperitoneally injections (ip) at a dose of 0.3 mg/kg and 0.4 mg/kg, respectively. Blood samples were collected at 0 min (predose), 5 min, 15 min, 30 min, 60 min, 120 min, and 240 min after compound administration. Blood and brain samples were collected under general anesthesia induced by ip injections of 50 mg/kg ketamine plus 8 mg/kg xylazine. Blood samples were taken in heparinized tubes and immediately centrifuged at 3500 rpm for 10 min, and plasma was collected. Brain and plasma samples were immediately frozen at – 80 ℃ for LC/MS/MS analysis. All experimental procedures were carried out according to EU Directive 2010/63/EU and approved by the I Local Ethics Committee for Animal Experiments of the Jagiellonian University in Krakow, Poland (No. 94/2016).
(§2) The pharmacokinetic parameters were calculated using a non-compartmental approach from the average concentration values, using Phoenix WinNonlin software (Certara, Princeton, NJ 08540 USA). The first-order elimination rate constant (λz) was calculated by linear regression of time versus log concentration. Next, the area under the mean plasma and the concentration in the brain versus the time curve (AUC0→t) were estimated using the log-linear trapezoidal rule (Eq. 1), where Cn is the concentration of the last sampling of each compound1 AUC0→t=∑i=1n(Ci+Ci+1)/2·ti+1-ti+Cn/λz.
(§3) The quantification of compounds in plasma and brain samples was performed using the Sciex API 3200 triple quadrupole mass spectrometer (Concord, Ontario, Canada) equipped with an electrospray (ESI) ionization interface. This instrument was coupled to an Elite LaChrom (Hitachi, USA) HPLC system. Data acquisition and processing were performed using Sciex Analyst 1.5.2 data collection and integration software. After preparation, the samples were injected (20 µL) onto XBridge C18 (2.1 mm × 30 mm, 3.5 μm, Waters, Milford, Massachusetts, USA) analytical column. The mobile phase consisted of 0.1% formic acid in acetonitrile (A) and 0.1% formic acid in water (B) was delivered in a gradient elution starting with 90% of eluent B, increasing for 2 min to 90% of eluent A, maintained for 3 min, and then returned for 5 min to 90% of eluent B, and maintained 90% of eluent B during 5 min at a flow rate of 300 µL/min. The total analysis time was 10 min. […] The ion spray source settings were as follows: spray voltage: 5.5 kV, heater temperature: 400 °C, curtain gas: 10 psi, source gas 1: 20 psi, and source gas 2: 20 psi.
Further dilutions were performed using the same solvent to prepare working standard solutions of the analyte at the following concentrations: 0.025, 0.05, 0.1, 0.25, 0.5, 1.0, 2.5, 5.0, 10, 25, and 50 µg/mL for calibration curve samples (CC) and 0.025, 0.075, 2.2, and 4.5 µg/mL for quality control samples (QC). To prepare samples for calibration curve or quality control samples, 45 µL of the matrix (plasma or brain homogenate) was added with 5 µL of internal standard solution (1 µg/mL) obtaining the final concentration of 100 ng/mL and 5 µL of standard working solutions at the needed CC or QC concentration levels. After the addition of the standard solution, the samples were mixed and purified.
A sample volume of 50 µL of plasma or brain homogenate was transferred to the clean Eppendorf tube and spiked with 5 µL of IS solution (1 µg/mL) obtaining the final concentration of 100 ng/mL. After 5 min of mixing (1500 rpm) proteins were precipitated using 200 µL ACN. After 10 min of sample shaking (1500 rpm), the incubation step was performed (10 min, 4 °C). The samples were then centrifuged (10,000 rpm, 10 min, 4 °C) and the supernatant was transferred to chromatographic vials for LC/MS/MS analysis.

A short description of series [2]: Pharmacokinetics in plasma after ip administration. It counts as in vivo, rat. To be noted: for concentration at 5 min / concentration at 15 min / concentration at 30 min / concentration at 60 min / concentration at 120 min / concentration at 240 min / CL/F / Tmax / Vd/F / half-life: male, Wistar, plasma; for concentration at 5 min / concentration at 15 min / concentration at 30 min / concentration at 60 min / concentration at 120 min / concentration at 240 min / CL/F / Tmax / Vd/F / half-life / volume of distribution: rat; for concentration at 5 min / concentration at 15 min / concentration at 30 min / concentration at 60 min / concentration at 120 min / concentration at 240 min: intraperitoneal, mean; for concentration at 5 min: 5 min after administration; for concentration at 15 min: 15 min after administration; for concentration at 30 min: 30 min after administration; for concentration at 60 min: 60 min after administration; for concentration at 120 min: 120 min after administration; for concentration at 240 min: 240 min after administration; for CL/F / Tmax / Vd/F / half-life / t0.5 terminal half-life / volume of distribution: ip; for half-life / t0.5 terminal half-life: rat plasma; for half-life / t0.5 terminal half-life / volume of distribution: Guanabenz 0.3 mg/kg, 4-OH-Guanabenz 0.4 mg/kg; for half-life: read-out: t0.5 terminal half-life. The method, then:
as §1, with “Poland. During the habituation period, the groups of 4 rats were kept in a plastic cage at a controlled room temperature (22 ± 2 ℃), humidity (55 ± 10%), full-spectrum cold white light (350–400 lx), in 12 h light/dark cycles (the lights on at 7:00 am, and off at 19:00 pm), and had free access to standard laboratory pellet and tap water.” for “Poland.”
as §2
The area under the first-moment curve (AUMC0→t) was estimated by calculating of the total area under the first-moment curve using Eq. 2, where tn is the time of last sampling2 AUMC0→t=∑i=1n(ti·Ci+ti+1·Ci+1)/2·ti+1-ti+(tn·Cn)/λz+Cn/λz2.
Mean residence time (MRT, Eq. 3) was calculated as3 MRT=AUMC0→t/AUC0→t.
Total clearance (ClT, Eq. 4) was calculated as4 C1T=F·Di.p./AUC0→t.
as §3
Further dilutions were performed using the same solvent to prepare working standard solutions of the analyte at the following concentrations: 0.025, 0.05, 0.1, 0.25, 0.5, 1.0, 2.5, 5.0, 10, 25, and 50 µg/mL for calibration curve samples (CC) and 0.025, 0.075, 2.2, and 4.5 µg/mL for quality control samples (QC). […]

Where [3] appears, read: rat brain, ip, Guanabenz 0.3 mg/kg, 4-OH-Guanabenz 0.4 mg/kg.

Usually Tmax stands for the time from dosing to the highest level. In general, CL/F refers to clearance divided by bioavailability, as obtained after extravascular dosing. The Vd/F is the apparent distribution volume after extravascular dosing. A word on the half-life: it is the time needed for the level to fall by half in the phase considered. On to `N=C(N)N/N=C/c1c(Cl)cccc1Cl` [Guanabenz], for which the Tmax in series [1] (ip) is 1 h. Moreover, the Tmax in series [1] (ip, 0.3 mg/kg) is at most 1 h. In series [1], the concentration at 5 min came to 45.6 ng/g, the concentration at 15 min was 110 ng/g, the concentration at 30 min worked out at 164 ng/g and the concentration at 60 min was found to be 183 ng/g. In series [1], the concentration at 120 min worked out at 92.5 ng/g, the concentration at 240 min amounted to 58.6 ng/g and the “Penetration into the brain” value is “Good”. The t0.5 in series [1] (setting [3]) is reported as 116.1 min. Besides, in series [2], the concentration at 5 min is 10.2 ng/mL, the concentration at 15 min was determined as 91.2 ng/mL, the concentration at 30 min was found to be 95.1 ng/mL and the concentration at 60 min came out at 14.2 ng/mL. Also, in series [2], the concentration at 120 min was determined as 26.1 ng/mL, the concentration at 240 min stood at 8.53 ng/mL, the CL/F turned out to be 13.5 mL/min/kg and the Tmax was 0.5 h. In series [2], the Vd/F is 1.61 L/kg, the half-life was about 1.38 h, the t0.5 terminal half-life was determined as 1.38 h and the volume of distribution was determined as 1.6 L/kg.

For `Cl.N=C(N)NN=Cc1c(Cl)cc(O)cc1Cl` [4-OH-Guanabenz, 2-[(2,6-Dichloro-4-hydroxyphenyl)methylene]hydrazinecarboximidamide Hydrochloride], the Tmax in series [1] (ip) was 0.25 h. Moreover, in series [1], the concentration at 5 min was 13.3 ng/g, the concentration at 15 min is 64.5 ng/g, the concentration at 30 min came to 23.9 ng/g and the concentration at 60 min was 4.54 ng/g. In addition, in series [1], the concentration at 120 min stood at 3.94 ng/g, the concentration at 240 min worked out at 3.2 ng/g and the “Penetration into the brain” value is listed as “Poor”. In series [1] (setting [3]), the AUC0→t is given as 2573 ng ⋅ min/g and the t0.5 was found to be 112.7 min. For the same compound, in series [2], the concentration at 5 min was determined as 54.3 ng/mL, the concentration at 15 min is 101 ng/mL, the concentration at 30 min was found to be 20.2 ng/mL and the concentration at 60 min stood at 41.9 ng/mL. In series [2], the concentration at 120 min came out at 8.65 ng/mL, the concentration at 240 min was 6.52 ng/mL, the CL/F was found to be 17.7 mL/min/kg and the time to peak (Tmax) is 0.25 h. Moreover, in series [2], the Vd/F stood at 1.75 L/kg, the half-life was about 1.15 h, the t0.5 terminal half-life worked out at 1.14 h and the volume of distribution worked out at 1.7 L/kg.
